Source: patent US6756381B2 (SuperGen, Inc., priority 2002, dated 2004)

Experiments:
[1] = system: human tumor xenografts; settings: nude mice; cited from earlier work
[2] = Moisture sorption/desorption (VTI SGA-100 moisture balance); type: physicochemical; settings: for hygroscopicity (in words): 5 to 95% RH; for Weight % chg: 25 deg C
Excerpt: The samples were not dried prior to analysis.

[3] = Storage of Form B in a closed vial, XRPD pattern compared; type: physicochemical; settings: 31 days, ambient conditions
Procedure: X-ray powder diffraction analyses were carried out on a Shimadzu XRD-6000 X-ray powder diffractometer using Cu Kα radiation having a wavelength of 1.5406 Å. The instrument is equipped with a fine-focus X-ray tube. The tube power was set by setting potential difference at 40 kV, and current 40 mA. The divergence and scattering slits were set at 1° and the receiving slit was set at 0.15 mm. Diffracted radiation was detected by a NaI scintillation detector. A theta-two theta continuous scan at 3°/min (0.4 sec/0.02° step) from 2.5 to 40 °2 θ was performed. A silicon standard was analyzed each day to check the instrument alignment. Each sample was analyzed in a quartz sample holder. A variable temperature (VT-XRPD) experiment was performed on one form. The sample was prepared for analysis by pressing it into a variable temperature holder. A powder pattern was collected initially at 35° C. and again, after heating, at 200° C.

[4] = Dehydration/desolvation under vacuum, XRPD compared; type: physicochemical
[5] = cited from earlier work
[6] = start, elapsed time 0.0 min, sample not dried

Compound: CC[C@@]1(O)C(=O)OCc2c1cc1n(c2=O)Cc2cc3c([N+](=O)[O-])cccc3nc2-1 [9-nitrocamptothecin, 9-nitro-20(S)-camptothecin]
- regression of human tumors established as xenografts [1]: induced regression

Compound: CC[C@@]1(O)C(=O)OCc2c1cc1n(c2=O)Cc2cc3c([N+](=O)[O-])cccc3nc2-1 [Form A, 9-nitrocamptothecin]
- hygroscopicity (in words) [2]: not hygroscopic
- Weight % chg ([2]; sorption, about 35% RH): 0.0210%
- Weight % chg [2, 6]: 0.0000%

Compound: CC[C@@]1(O)C(=O)OCc2c1cc1n(c2=O)Cc2cc3c([N+](=O)[O-])cccc3nc2-1 [Form B, 9-nitrocamptothecin]
- stability of the crystalline polymorph on storage (XRPD pattern unchanged) [3]: relatively stable
- hygroscopicity (in words) [2]: relatively hygroscopic
- Weight % chg [2, 6]: 0.0000%

Compound: CC[C@@]1(O)C(=O)OCc2c1cc1n(c2=O)Cc2cc3c([N+](=O)[O-])cccc3nc2-1 [Form C, 9-nitrocamptothecin]
- result of attempt to desolvate under vacuum [4]: becomes amorphous

Compound: CC[C@@](O)(C(=O)[O-])c1cc2n(c(=O)c1CO)Cc1cc3ccccc3nc1-2.[Na+] [Sodium camptothecin]
- unpredictable side effects ([5]; administered intravenously): myelosuppression and hemorrhagic cystitis
- activity in clinical trials ([5]; solubilized by sodium hydroxide in water, intravenous): antineoplastic activity
